# Experimental data published in US20080132522A1, “2-Substituted Pyrimidines, Method for Their Production and Their Use for Controlling Pathogenic Fungi” (BASF Aktiengesellschaft, priority 2004, published 2008).
# Key:
# Alternaria solani = assay: Activity against early blight of tomato caused by Alternaria solani; type: in vivo; conditions: 250 ppm; tomato "Goldene Königin"; after 5 days; untreated 90% infected
# Protocol: (§1) The active compounds were prepared separately as a stock solution with 25 mg of active compound which was made up to 10 ml with a mixture of acetone and/or DMSO and the emulsifier Uniperol® EL (wetting agent having emulsifying and dispersing action based on ethoxylated alkylphenols) in a volume ratio solvent/emulsifier of 99 to 1. The solution was then made up to 100 ml with water. This stock solution was diluted to the active compound concentration stated below using the solvent/emulsifier/water mixture described.
# Activity Against Early Blight of Tomato Caused by Alternaria solani
# Leaves of potted plants of the cultivar “Goldene Königin” were sprayed to runoff point with an aqueous suspension having the concentration of active compounds stated below. The next day, the leaves were inoculated with an aqueous spore suspension of Alternaria solani in 2% biomalt solution having a density of 0.17×10^6 spores/ml. The plants were then placed in a water-vapor-saturated chamber at temperatures of between 20 and 22° C. After 5 days, the disease on the leaves of the untreated, but infected control plants had developed to such an extent that the infection could be determined visually in %.
# Botrytis cinerea = assay: Activity against gray mold on bell pepper leaves caused by Botrytis cinerea, protective application; type: in vivo; conditions: 250 ppm; bell pepper "Neusiedler Ideal Elite"; after 5 days; untreated 90% infected
# Protocol: as §1
# Activity Against Gray Mold on Bell Pepper Leaves Caused by Botrytis cinerea, Protective Application
# Bell pepper seedlings of the cultivar “Neusiedler Ideal Elite” were, after 2-3 leaves were well-developed, sprayed to runoff point with an aqueous suspension having the concentration of active compound stated below. The next day, the treated plants were inoculated with a spore suspension of Botrytis cinerea which contained 1.7×10^6 spores/ml in a 2% strength aqueous biomalt solution. The test plants were then placed in a dark climatized chamber at 22-24° C. and high atmospheric humidity. After 5 days, the extent of the fungal infection on the leaves could be determined visually in %.
# Pyrenophora teres = assay: Activity against net blotch of barley caused by Pyrenophora teres, 1 day protective application; type: in vivo, Pyrenophora [syn. Drechslera] teres; conditions: 250 ppm; barley "Hanna"; after 6 days; untreated 90% infected
# Protocol: The active compounds were prepared separately as a stock solution with 25 mg of active compound which was made up to 10 ml with a mixture of acetone and/or DMSO and the emulsifier Uniperol® EL (wetting agent having emulsifying and dispersing action based on ethoxylated alkylphenols) in a volume ratio solvent/emulsifier of 99 to 1. The solution was then made up to 100 ml with water. This stock solution was diluted to the active compound concentration stated below using the solvent/emulsifier/water mixture described. Activity Against Net Blotch of Barley Caused by Pyrenophora teres, 1 Day Protective Application Leaves of potted barley seedlings of the cultivar “Hanna” were sprayed to runoff point with an aqueous suspension having the concentration of active compounds stated below. 24 hours after the spray coating had dried on, the test plants were inoculated with an aqueous spore suspension of Pyrenophora [syn. Drechslera] teres, the net blotch pathogen. The test plants were then placed in a greenhouse at temperatures between 20 and 24° C. and 95 to 100% relative atmospheric humidity. After 6 days, the extent of the development of the disease was determined visually in % infection of the entire leaf area.
SMILES,infection of treated leaf areas (Alternaria solani),infection of treated leaf areas (Botrytis cinerea),infection of treated leaf areas (Pyrenophora teres),melting point
"CC(C)Oc1nc(-n2cccn2)nc(Cl)c1-c1c(F)cc(F)cc1F [1), 4-Chloro-6-isopropoxy-2-(pyrazol-1-yl)-5-(2,4,6-trifluorophenyl)pyrimidine]",only little infection,only little infection,only little infection,106 to 107 °C
"CC(C)Oc1nc(C#N)nc(Cl)c1-c1c(F)cc(F)cc1F [5), 4-Chloro-2-cyano-6-isopropoxy-5-(2,4,6-trifluorophenyl)pyrimidine]",,,,32 °C
CC(C)(C)Oc1nc(-c2ccccn2)nc(Cl)c1-c1c(F)cccc1Cl [4)],only little infection,only little infection,only little infection,
"CON=C(N)c1nc(Cl)c(-c2c(F)cc(F)cc2F)c(OC(C)C)n1 [3), O-Methyl (4-chloro-6-isopropoxy-5-(2,4,6-trifluorophenyl)pyrimidin-2-yl)carbamidoxime]",only little infection,only little infection,only little infection,
